Assay results: patent US7666901B2, “Analogs of 17-hydroxywortmannin as PI3K inhibitors” (Wyeth, priority 2004, dated 2010)

Tested on: T1, PI3K
T1 construct: PI3K FP IC50
Assay: Fluorescence polarization assay for PI3K
Assay type: biochemical
Method in brief: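 PI3K was preincubated with compound at 1% DMSO final, then reacted with PIP2/ATP substrate for 30-60 min. The reaction was stopped with a detector mix giving 10 nM red probe and 70 nM GST-GRP. Fluorescence polarization (mP, Tamra filters) was read 30-90 min later and IC50 determined.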

COC[C@H]1OC(=O)/C(=C/N(CCO)C(C)(C)C)C2=C(O)C(=O)C3=C([C@H](OC(C)=O)C[C@@]4(C)C3CC[C@@H]4O)[C@]21C (stereo partly drawn) [Compound 4, (1E,4S,4aR,5R,6aS,7S)-1-{[tert-butyl(2-hydroxyethyl)amino]methylene}-7,11-dihydroxy-4-(methoxymethyl)-4a,6a-dimethyl-2,10-dioxo-1,2,4,4a,5,6,6a,7,8,9,9a,10-dodecahydroindeno[4,5-h]isochromen-5-yl acetate]
PI3K FP IC50 (Table 1): 0.596 µg/mL
IC50 (Table 2): 1000 nM
